Our source for the IC50 and Kd values is patent US11026936B2, “Piperidinyl-propanone derivatives” (Merck Patent GmbH, priority 2016, dated 2021).

One assay deals with PDHK2 (Homo sapiens (Human), UniProt Q15119). Kind of assay: Biochemical activity testing of PDHK2: PDC inactivation assay. Particulars: human rec PDHK2, PDC from porcine heart, ATP 5 μM; read-out: IC50 PDHK2 (enzyme assay). The source says:
Biochemical Activity Testing of PDHK2: PDC Inactivation Assay
The biochemical activity assay for PDHK2 is based on the inactivation of PDC through phosphorylation by PDHK2. The assay is run in two steps: the enzymatic PDHK2 reaction in which isolated PDC is phosphorylated by PDHK2 with ATP as co-substrate and the PDC activity assay in which pyruvate and NAD are converted to acetyl-CoA and NADH. The PDC activity correlates to the increase in NADH and thereby is detectable directly via the increasing fluorescence signal (Exc 340 nm, Em 450 nm). Inhibition of PDHK2 results in a lower phosphorylation status and thereby a less decrease in activity of PDC and a stronger increase in NADH fluorescence signal.
The PDC inactivation assay is performed in Greiner 384-well microtiter plates and is used for high throughput screen. 4 μl of PDHK2 (human, rec, Carna Bioscience, 10 ng/μl-137 nM final concentration) and PDC (isolated from porcine heart, Sigma-Aldrich, 20 mU/ml final concentration) are incubated in the absence or presence of the test compound (10 dilution concentrations) for 30 min at room temperature in kinase buffer (15 mM potassium phosphate buffer, pH 7.0, 60 mM KCl, 1.5 mM DTT, 2.5 mM MgCl2, 0.0125% (w/v) BSA, 0.125% Pluronic F-68). The kinase reaction is started by the addition of 4 μl ATP substrate solution (fc 5 μM in kinase buffer). After 30 min incubation at 37° C. 40 μl of PDC reaction solution (100 mM Tris/HCl, pH 7.8, 0.5 mM EDTA, 1 mM MgCl2, 50 mM NaF, 0.25 mM Coenzyme A, 5 mM pyruvate, 1 mM NAD, 5 mM DTT, 1 mM thiamine pyrophosphate) is added. The first fluorescence measurement is performed on a Perkin Elmer Envision (Exc 340 nm, Em 450 nm). The reaction is incubated for 45 min at room temperature. Afterwards a second fluorescence measurement is performed and the PDC activity is calculated by the difference between both measurements. As full value for the PDHK2 assay the inhibitor-free PDHK2 reaction is used. The pharmacological zero value used is DCA (Sigma-Aldrich) in a final concentration of 3 mM. The inhibitory values (IC50) were determined using either the program Symyx Assay Explorer® or Condosseo® from GeneData.

The next assay addresses human PDHK2 (12-407) (Homo sapiens (Human), UniProt Q15119). Description: Isothermal titration calorimetry (ITC) binding. Particulars: 30° C., pH 7.5. As for the experimental part:
Isothermal Titration Calorimetry
ITC measurements were performed with a VP-ITC micro calorimeter (Microcal, LLC/GE Healthcare Bio-Sciences AB, Uppsala, Sweden). In general titrations were performed by titrating the protein (50 μM) to the test compound (5 μM) in 12 μl injections. All binding experiments were carried out at 30° C. In general the test compounds were diluted form DMSO stock solutions into the measurement buffer with a maximum final concentration of 1% DMSO. The measurement buffer was 20 mM HEPES, 135 mM KCl, 1 mM TCEP, 2 mM MgCl2, 15 mM NaH2PO4, pH 7.5. The human PDHK2 (12-407) was produced in E. coli as his-tagged protein and purified by affinity chromatography. The tag was removed by side specific proteolysis. Before titration the protein buffer was changed to the measurement buffer containing the same DMSO concentration as the test compound dilution. ITC data analysis was performed using Origin 7 calorimetry software from the same supplier. For most measurements a binding model of one binding site was assumed. According to the applied mathematical model it is possible to calculate the binding constant (KA), the observed binding enthalpy (ΔH^obs) as well as the stoichiometry (N) of the formed complex. Preceding analysis the raw data was corrected for the heats of dilution by extrapolating from the saturation value from the end of titration. In order to allow for direct comparison between the respective experimental series and protein preparations the protein concentration was corrected by referencing titrations to a well behaved standard inhibitor. The apparent stoichiometry values defined the fraction of binding competent protein and compensated for relative errors in protein concentration measurements. This corrected protein concentration was used to set up ITC experiment series with test compounds. Any deviations from ideal 1:1 stoichiometry observed here were attributed to errors in compound concentration. This nominal compound concentration was corrected as well to achieve 1:1 stoichiometry in the fit.
(In ITC the heat of successive injections is recorded.)

Assay [1] concerns PDH-E1alpha (pSer300) in HEK293T cells. Description: Cellular immunofluorescence assay, PDH-E1alpha (pSer300). Type of assay: cell-based. To be noted: Homo sapiens, HEK-293T, 5 hours incubation, read-out: IC50 (cell data). As for the experimental part:
Cellular Assay for Determination of Compound Activities
Compound activities were determined in a cellular immunofluorescence assay. Human HEK293T cells were seeded into black 384-well plates with clear bottom and grown overnight.
Next day, test compounds were added to the wells and the plates incubated for 5 hours. Following this, cells were fixed with formaldehyde, permeabilised and blocked. The primary antibody, Anti-PDH-E1alpha (pSer300), AP1064 (Merck Millipore) was added and incubated overnight in the plate wells. Next, cells were washed and the seconday antibody, Alexa Fluor 488, goat anti-rabbit ab (A-11008, Invitrogen) was added together with Hoechst 33258 (H3569, Invitrogen) and incubated for 1 hour in the plate wells. Finally, cells were washed and the plates were measured on the laser scanning cytometer acumen hci (TTpLabtech).
The raw data were normalized against a pharmacological inhibitor control and dose response curves were generated by plotting the percent effect values using the software package Genedata screener (Genedata).

A word on the IC50: it is the concentration at which inhibition is half-maximal. As usually defined, the Kd is the concentration at which binding is half-saturated. A higher Kd goes with lower affinity. For `COc1ccc(-c2nnc(C3([C@H]4CCN(C(=O)[C@@](C)(O)C(F)(F)F)C[C@H]4C)CC3)[nH]2)cc1` [Compound A28, (R)-3,3,3-Trifluoro-2-hydroxy-1-((3S,4S)-4-{1-[5-(4-methoxy-phenyl)-4H-[1,2,4]triazol-3-yl]-cyclopropyl}-3-methyl-piperidin-1-yl)-2-methyl-propan-1-one], the IC50 on PDHK2 worked out at 88 nM; in assay [1] it was 12 nM. On human PDHK2 (12-407), this compound displayed a Kd of 2.5 nM.
The like results for `CC(C)(c1nnc(-c2ccccc2)o1)C1CCN(C(=O)[C@@](C)(O)C(F)(F)F)CC1` [Compound A9, (R)-3,3,3-Trifluoro-2-hydroxy-2-methyl-1-{4-[1-methyl-1-(5-phenyl-[1,3,4]oxadiazol-2-yl)-ethyl]-piperidin-1-yl}-propan-1-one] were, in that order, 720 nM, 650 nM and 50 nM.
The like results for `COc1ccc(-c2nnc(C3([C@H]4CCN(C(=O)[C@@](C)(O)C(F)(F)F)C[C@H]4C)CC3)[nH]2)cn1` [Compound A40, (R)-3,3,3-Trifluoro-2-hydroxy-1-((3S,4S)-4-{1-[5-(6-methoxy-pyridin-3-yl)-4H-[1,2,4]triazol-3-yl]-cyclopropyl}-3-methyl-piperidin-1-yl)-2-methyl-propan-1-one] were, in that order, 91 nM, 25 nM and 6.5 nM.
The corresponding values for `C[C@@H]1CN(C(=O)[C@@](C)(O)C(F)(F)F)CC[C@@H]1C1(c2nnc(-c3ccccc3)[nH]2)CC1` [Compound A14, (R)-3,3,3-Trifluoro-2-hydroxy-2-methyl-1-{(3S,4S)-3-methyl-4-[1-(5-phenyl-4H-[1,2,4]triazol-3-yl)-cyclopropyl]-piperidin-1-yl}-propan-1-one] are 130 nM, 19 nM and below 2 nM.
Consider `C[C@@H]1CN(C(=O)[C@@](C)(O)C(F)(F)F)CC[C@@H]1C1(c2nnc(-c3ccc(Cl)cc3)[nH]2)CC1` [Compound A34, (R)-1-((3S,4S)-4-{1-[5-(4-Chloro-phenyl)-4H-[1,2,4]triazol-3-yl]-cyclopropyl}-3-methyl-piperidin-1-yl)-3,3,3-trifluoro-2-hydroxy-2-methyl-propan-1-one], for which the IC50 on PDHK2 was 180 nM; in assay [1], 19 nM. Further, the Kd on human PDHK2 (12-407) amounted to 2.8 nM.
The corresponding values for `C[C@@](O)(C(=O)N1CCC(C2(c3nnc(-c4ccccc4)[nH]3)CC2)CC1)C(F)(F)F` [Compound A1, (R)-3,3,3-Trifluoro-2-hydroxy-2-methyl-1-{4-[1-(5-phenyl-1H-[1,2,4]triazol-3-yl)-cyclopropyl]-piperidin-1-yl}-propan-1-one] are 590 nM, 3000 nM and 110 nM.
The like results for `C[C@@H]1CN(C(=O)[C@@](C)(O)C(F)(F)F)CC[C@@H]1C1(c2nnc(-c3ccc(Cl)cc3)o2)CC1` [Compound A37, (R)-1-((3S,4S)-4-{1-[5-(4-Chloro-phenyl)-[1,3,4]oxadiazol-2-yl]-cyclopropyl}-3-methyl-piperidin-1-yl)-3,3,3-trifluoro-2-hydroxy-2-methyl-propan-1-one] were, in that order, 130 nM, 25 nM and 2.4 nM.
The corresponding values for `Cc1nnc(C2(C3CCN(C(=O)[C@@](C)(O)C(F)(F)F)CC3)CC2)o1` [Compound A7, (R)-3,3,3-Trifluoro-2-hydroxy-2-methyl-1-{4-[1-(5-methyl-[1,3,4]oxadiazol-2-yl)-cyclopropyl]-piperidin-1-yl}-propan-1-one] are 3500 nM, above 30000 nM and 850 nM.
For the compound `Cc1ccc(-c2nnc(C3([C@H]4CCN(C(=O)[C@@](C)(O)C(F)(F)F)C[C@H]4C)CC3)[nH]2)cc1` [Compound A22, (R)-3,3,3-Trifluoro-2-hydroxy-2-methyl-1-{(3S,4S)-3-methyl-4-[1-(5-p-tolyl-4H-[1,2,4]triazol-3-yl)-cyclopropyl]-piperidin-1-yl}-propan-1-one], the IC50 was 90 nM on PDHK2 and 16 nM in assay [1]. The same compound returned a Kd at human PDHK2 (12-407) of 2.6 nM.
The like results for `CC(C)(c1nnc(C2CCCCC2)[nH]1)C1CCN(C(=O)[C@@](C)(O)C(F)(F)F)CC1` [Compound A4, (R)-1-{4-[1-(5-Cyclohexyl-4H-[1,2,4]triazol-3-yl)-1-methyl-ethyl]-piperidin-1-yl}-3,3,3-trifluoro-2-hydroxy-2-methyl-propan-1-one] were, in that order, 1400 nM, 3900 nM and 290 nM.
